Experimental data as given in ChEMBL document CHEMBL1201862, “PubChem BioAssay data set” (2004).
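Five concentrations, 48 hours, 96-well plates. The concentration for 50% growth inhibition is given as GI50.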 The source made the active and inactive calls. No stated cut-off is given here; in the data, active = GI50 up to about 1.1 µM and inactive = higher.

How the values were obtained:
Assay in all cases: DTP human tumour cell line panel, 48 h
ACHN = tested on: ACHN
HL-60 = tested on: HL-60
HOP-62 = tested on: HOP-62
HT-29 = tested on: HT-29
K562 = tested on: K562
KM12 = tested on: KM12
LOX IMVI = tested on: LOX IMVI
MDA-MB-231 = tested on: MDA-MB-231
MDA-MB-435 = tested on: MDA-MB-435
MOLT-4 = tested on: MOLT-4
NCI-H226 = tested on: NCI-H226
NCI-H23 = tested on: NCI-H23
NCI-H460 = tested on: NCI-H460
OVCAR-4 = tested on: OVCAR-4
RPMI-8226 = tested on: RPMI-8226
RXF 393 = tested on: RXF 393
SF-539 = tested on: SF-539
SK-MEL-2 = tested on: SK-MEL-2
TK-10 = tested on: TK-10
UACC-257 = tested on: UACC-257

Measured: GI50

C/C(=N\NC(N)=O)C(CN(C)C)C(c1ccccc1)c1c(O)c2ccccc2oc1=O (stereo not given)
inactive: ACHN > 100 µM | HL-60 38.4 µM | HOP-62 > 100 µM | HT-29 > 100 µM | K562 > 100 µM | KM12 > 100 µM | LOX IMVI > 100 µM | MDA-MB-231 > 100 µM | MDA-MB-435 > 100 µM | MOLT-4 71.9 µM | NCI-H226 > 100 µM | NCI-H23 > 100 µM | NCI-H460 > 100 µM | OVCAR-4 > 100 µM | RPMI-8226 61.5 µM | RXF 393 88.7 µM | SF-539 > 100 µM | SK-MEL-2 > 100 µM | TK-10 > 100 µM | UACC-257 > 100 µM

COC(=O)C1=C(OC(=O)c2ccccc2)C(C(=O)OC)[C@]2(O)[C@@H](C(=O)OC)[C@H]1C[C@@H](c1ccccc1)[C@@H]2C(=O)OC (stereo not given in full)
inactive: ACHN 10.9 µM | HL-60 2.02 µM | HOP-62 13.2 µM | HT-29 15.7 µM | K562 3.33 µM | KM12 8.63 µM | LOX IMVI 9.31 µM | MDA-MB-231 15.7 µM | MDA-MB-435 2.45 µM | MOLT-4 3.64 µM | NCI-H226 2.56 µM | NCI-H23 6.32 µM | NCI-H460 9.68 µM | OVCAR-4 10.6 µM | RPMI-8226 1.74 µM | RXF 393 3.14 µM | SF-539 2.2 µM | SK-MEL-2 2.81 µM | TK-10 17.3 µM | UACC-257 5.62 µM

Cc1ncc([N+](=O)[O-])n1CCNS(=O)(=O)CCCn1ncnc1[N+](=O)[O-]
inactive: ACHN > 100 µM | HL-60 > 100 µM | HOP-62 > 100 µM | HT-29 > 100 µM | K562 > 100 µM | KM12 > 100 µM | LOX IMVI > 100 µM | MDA-MB-231 > 100 µM | MDA-MB-435 > 100 µM | MOLT-4 > 100 µM | NCI-H226 > 100 µM | NCI-H23 > 100 µM | NCI-H460 > 100 µM | OVCAR-4 > 100 µM | RPMI-8226 > 100 µM | RXF 393 > 100 µM | SF-539 > 100 µM | SK-MEL-2 > 100 µM | TK-10 > 100 µM | UACC-257 > 100 µM

O=CNc1ccc2c(c1)C(=O)c1ccccc1-2
inactive: ACHN > 100 µM | HL-60 49.1 µM | HOP-62 90.2 µM | HT-29 49 µM | K562 81.3 µM | KM12 68.2 µM | LOX IMVI 48.8 µM | MDA-MB-231 > 100 µM | MDA-MB-435 > 100 µM | MOLT-4 44.7 µM | NCI-H226 > 100 µM | NCI-H23 > 100 µM | NCI-H460 46 µM | OVCAR-4 > 100 µM | RPMI-8226 61.4 µM | RXF 393 65.2 µM | SF-539 75.5 µM | SK-MEL-2 > 100 µM | TK-10 > 100 µM | UACC-257 > 100 µM

C[Si](C)(c1ccccc1)[C@H]1CCCC=C1CCNC1c2ccccc2CCc2ccccc21
inactive: ACHN 67.5 µM | HL-60 1.79 µM | HOP-62 > 100 µM | HT-29 28.7 µM | K562 52.1 µM | KM12 77.3 µM | LOX IMVI 70.6 µM | MDA-MB-231 89.7 µM | MDA-MB-435 76.2 µM | MOLT-4 30 µM | NCI-H226 > 100 µM | NCI-H23 61.5 µM | NCI-H460 61.7 µM | OVCAR-4 41.5 µM | RPMI-8226 46.8 µM | RXF 393 80 µM | SF-539 > 100 µM | SK-MEL-2 > 100 µM | TK-10 > 100 µM | UACC-257 52.4 µM

CN(c1ccccc1)S(=O)(=O)c1ccccc1[N+](=O)[O-]
inactive: ACHN > 100 µM | HL-60 > 100 µM | HOP-62 > 100 µM | HT-29 39.8 µM | K562 36.3 µM | KM12 > 100 µM | LOX IMVI > 100 µM | MDA-MB-231 67.9 µM | MDA-MB-435 71.9 µM | MOLT-4 26.2 µM | NCI-H226 > 100 µM | NCI-H23 > 100 µM | NCI-H460 77.1 µM | OVCAR-4 98.4 µM | RPMI-8226 37.8 µM | RXF 393 > 100 µM | SF-539 > 100 µM | SK-MEL-2 > 100 µM | TK-10 > 100 µM | UACC-257 > 100 µM

CC(C)C(NC(=O)C(Cc1ccccc1)NC(=O)[C@H]1CCC[C@H]1NC(=O)C(Cc1ccc(OC(C)(C)C)cc1)NC(=O)OC(C)(C)C)C(N)=O (stereo not given in full)
inactive: ACHN 45.7 µM | HL-60 34.8 µM | HOP-62 16.6 µM | HT-29 21.5 µM | K562 17.8 µM | KM12 21.9 µM | LOX IMVI 15.6 µM | MDA-MB-231 20.7 µM | MDA-MB-435 17 µM | MOLT-4 17.4 µM | NCI-H226 22.4 µM | NCI-H23 16.9 µM | NCI-H460 19.2 µM | OVCAR-4 19.4 µM | RPMI-8226 36.5 µM | RXF 393 81.1 µM | SF-539 16.5 µM | SK-MEL-2 26 µM | TK-10 28.5 µM | UACC-257 > 10 µM

COc1ccc(C2=C(N)c3ncccc3C2=O)cc1
inactive: ACHN > 10 µM | HL-60 93.8 µM | HOP-62 > 100 µM | HT-29 > 100 µM | K562 > 100 µM | KM12 > 100 µM | LOX IMVI > 100 µM | MDA-MB-231 > 100 µM | MDA-MB-435 > 100 µM | MOLT-4 > 100 µM | NCI-H226 > 100 µM | NCI-H23 > 100 µM | NCI-H460 > 100 µM | OVCAR-4 > 100 µM | RPMI-8226 > 100 µM | RXF 393 24.7 µM | SF-539 > 100 µM | SK-MEL-2 > 100 µM | TK-10 > 10 µM | UACC-257 > 10 µM
